Holding throughout (format): biochemical
The target of assay [1] is T1, JAK1 (aa 850-1154, catalytic domain, GST-tag) (Homo sapiens, UniProt P23458).
T1 construct: JAK1 (aa 850-1154) and TYK2 (aa 871-1187) are expressed with an N-terminally fused GST-tag; GST (N); purchased Carna Biosciences, Inc; host or cells: baculovirus expression system
The assay is described as follows: JAK kinase assay (HTRF, phosphorylation of TK substrate-biotin), JAK1. As to conditions: ATP at Km (7 μM), read-out: JAK1 kinase inhibitory activity (EC50 indicator). The method in brief: (§1)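 Compound was mixed with TK substrate-biotin (1 μM final), then kinase plus ATP at its Km was added and left 20-30 min at room temperature. Detection mix with EDTA, Streptavidin-XL665 and STK Ab Cryptate stopped the reaction; after overnight dark incubation, HTRF was read and EC50 derived.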
In general terms: TR-FRET usually uses a lanthanide donor and a delayed reading to cut background.

For assay [2], the target named is T2, JAK2 (catalytic domain, His-tag) (Homo sapiens, UniProt O60674).
T2 construct: All four purified enzymes contain only the catalytic domain; His (N); purchased Carna Biosciences, Inc; host or cells: baculovirus expression system
The assay can be described thus: JAK kinase assay (HTRF, phosphorylation of TK substrate-biotin), JAK2. The note with it: ATP at Km (4 μM), read-out: JAK2 kinase inhibitory activity (EC50 indicator). The method in brief: as §1

Assay [3] deals with T3, JAK3 (catalytic domain, His-tag) (Homo sapiens, UniProt P52333).
T3 construct: All four purified enzymes contain only the catalytic domain; His (N); purchased Carna Biosciences, Inc; host or cells: baculovirus expression system
The assay can be described thus: JAK kinase assay (HTRF, phosphorylation of TK substrate-biotin), JAK3. As to conditions: ATP at Km (2 μM), read-out: JAK3 kinase inhibitory activity (EC50 indicator). The essentials: as §1

For assay [4], the target named is T4, TYK2 (aa 871-1187, catalytic domain, GST-tag) (Homo sapiens, UniProt P29597).
T4 construct: JAK1 (aa 850-1154) and TYK2 (aa 871-1187) are expressed with an N-terminally fused GST-tag; GST (N); purchased Carna Biosciences, Inc; host or cells: baculovirus expression system
T4 sequence (P29597 871-1187): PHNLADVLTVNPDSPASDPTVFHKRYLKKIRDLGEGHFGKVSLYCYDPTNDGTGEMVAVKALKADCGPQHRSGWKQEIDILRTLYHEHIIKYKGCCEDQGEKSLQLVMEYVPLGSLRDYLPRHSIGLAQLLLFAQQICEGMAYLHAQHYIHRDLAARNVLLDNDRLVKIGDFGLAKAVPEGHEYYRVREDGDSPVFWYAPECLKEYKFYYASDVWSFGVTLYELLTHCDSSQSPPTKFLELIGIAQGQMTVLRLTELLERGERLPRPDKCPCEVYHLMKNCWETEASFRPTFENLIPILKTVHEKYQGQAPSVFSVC
The assay can be described thus: JAK kinase assay (HTRF, phosphorylation of TK substrate-biotin), TYK2. As to conditions: ATP at Km (13 μM), read-out: TYK2 kinase inhibitory activity (EC50 indicator). The essentials:
as §1

Structures are written as SMILES. Read-outs that look alike come from different tables or passages of the source. A value given as a limit tells only on which side of the number the result lay.

A word on the EC50: it is the concentration at which the effect is half-maximal.

T3 sequence (P52333 822-1111 limits assumed): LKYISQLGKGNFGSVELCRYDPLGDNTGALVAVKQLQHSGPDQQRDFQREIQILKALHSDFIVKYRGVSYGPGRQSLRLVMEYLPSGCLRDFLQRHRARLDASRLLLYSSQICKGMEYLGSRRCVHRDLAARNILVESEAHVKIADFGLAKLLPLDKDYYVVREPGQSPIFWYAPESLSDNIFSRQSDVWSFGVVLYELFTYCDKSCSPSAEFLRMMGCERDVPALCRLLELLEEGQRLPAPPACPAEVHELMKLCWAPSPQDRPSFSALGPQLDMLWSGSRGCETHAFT
T1 sequence (P23458 850-1154): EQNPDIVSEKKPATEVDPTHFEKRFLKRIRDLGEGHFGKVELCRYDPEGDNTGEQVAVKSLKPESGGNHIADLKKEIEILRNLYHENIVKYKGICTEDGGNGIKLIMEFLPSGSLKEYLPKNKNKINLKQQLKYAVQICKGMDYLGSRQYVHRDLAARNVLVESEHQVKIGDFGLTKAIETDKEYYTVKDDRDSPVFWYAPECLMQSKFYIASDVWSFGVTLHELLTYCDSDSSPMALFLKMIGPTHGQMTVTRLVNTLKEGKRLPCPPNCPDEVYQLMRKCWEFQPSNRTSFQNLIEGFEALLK
T2 sequence (O60674 849-1124 limits assumed): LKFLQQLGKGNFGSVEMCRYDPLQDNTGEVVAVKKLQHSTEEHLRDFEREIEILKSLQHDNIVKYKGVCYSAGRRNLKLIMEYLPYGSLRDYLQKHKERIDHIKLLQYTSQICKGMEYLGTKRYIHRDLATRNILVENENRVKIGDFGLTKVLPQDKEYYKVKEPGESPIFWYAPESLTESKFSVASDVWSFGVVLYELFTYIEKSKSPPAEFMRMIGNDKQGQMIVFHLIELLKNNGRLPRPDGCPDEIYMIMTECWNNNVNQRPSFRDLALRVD

Take `CCOC(=O)N1[C@@H]2CC[C@H]1CN(c1ncnc3[nH]ccc13)C2` [Example 52, 3-(7H-Pyrrolo[2,3-d]pyrimidin-4-yl)-3,8-diazabicyclo[3.2.1]octane-8-carboxylic acid ethyl ester]: the EC50 in assay [1] is 100 to 500 nM; in assay [2] it was under 100 nM; in assay [3] it was 100 to 500 nM; in assay [4], 100 to 500 nM.

Take `CC(C)(C#N)C(=O)N1[C@@H]2CC[C@@H]1CN(c1ncnc3[nH]ccc13)C2` [Example 239, 2,2-Dimethyl-3-oxo-3-[3-(7H-pyrrolo[2,3-d]pyrimidin-4-yl)-3,8-diaza-bicyclo[3.2.1]oct-8-yl]-propionitrile]: the EC50 is 100 to 500 nM in assay [1] (HTRF assay), 100 to 500 nM in assay [2] (HTRF assay), 100 to 500 nM in assay [3] (HTRF assay) and over 500 nM in assay [4] (HTRF assay).

Turning to `Cc1cc(C(=O)N2CCN(c3ncnc4[nH]ccc34)CC23CC3)ccc1S(C)(=O)=O` [Example 403, (4-Methanesulfonyl-3-methyl-phenyl)-[7-(7H-pyrrolo[2,3-d]pyrimidin-4-yl)-4,7-diaza-spiro[2.5]oct-4-yl]-methanone], the 50% effective concentration (EC50) is under 100 nM in assay [1] (HTRF assay), under 100 nM in assay [2] (HTRF assay), 100 to 500 nM in assay [3] (HTRF assay) and 100 to 500 nM in assay [4] (HTRF assay).

Regarding `N#Cc1ccc(CC(=O)N2CCN(c3ncnc4[nH]ccc34)CC23CC3)cc1` [Example 35, 4-{2-Oxo-2-[7-(7H-pyrrolo[2,3-d]pyrimidin-4-yl)-4,7-diazaspiro[2.5]oct-4-yl]-ethyl}benzonitrile], the 50% effective concentration (EC50) in assay [1], in assay [2], in assay [3] and in assay [4] was under 100 nM in each case.

As for `N#Cc1ccc(C(=O)N2CCN(c3ncnc4[nH]ccc34)CC23CC3)s1` [Example 193, 5-[7-(7H-Pyrrolo[2,3-d]pyrimidin-4-yl)-4,7-diaza-spiro[2.5]octane-4-carbonyl]-thiophene-2-carbonitrile], the EC50 in assay [1], in assay [2], in assay [3] and in assay [4] was under 100 nM each time.

Take `COc1cnc2[nH]ccc2c1N1CCN(C(=O)c2ccccc2)C2(CC2)C1` [Example 283, [7-(5-Methoxy-1H-pyrrolo[2,3-b]pyridin-4-yl)-4,7-diaza-spiro[2.5]oct-4-yl]-phenyl-methanone]: the half-maximal effective concentration (EC50) in assay [1] (HTRF assay) is over 500 nM; in assay [2] (HTRF assay), 100 to 500 nM; in assay [3] (HTRF assay), 100 to 500 nM; in assay [4] (HTRF assay) it was over 500 nM.

Turning to `NS(=O)(=O)Cc1ccc(C(=O)N2CCN(c3ncnc4[nH]ccc34)CC23CC3)cc1` [Example 409, {4-[7-(7H-Pyrrolo[2,3-d]pyrimidin-4-yl)-4,7-diaza-spiro[2.5]octane-4-carbonyl]-phenyl}-methanesulfonamide], the half-maximal effective concentration (EC50) in assay [1] (HTRF assay) was under 100 nM; in assay [2] (HTRF assay), under 100 nM; in assay [3] (HTRF assay) it was under 100 nM; in assay [4] (HTRF assay), 100 to 500 nM.

Regarding `O=C(Cc1c[nH]c2ccccc12)N1CCN(c2ncnc3[nH]ccc23)CC12CC2` [Example 14, 2-(1H-Indol-3-yl)-1-[7-(7H-pyrrolo[2,3-d]pyrimidin-4-yl)-4,7-diazaspiro[2.5]oct-4-yl]ethanone], the concentration giving a half-maximal response (EC50) in assay [1] is 100 to 500 nM; in assay [2], under 100 nM; in assay [3] it was 100 to 500 nM; in assay [4], over 500 nM.

With `N#CCCC(=O)N1CCN(c2ccnc3[nH]ccc23)CC12CC2` [Example 116, 4-Oxo-4-[7-(1H-pyrrolo[2,3-b]pyridin-4-yl)-4,7-diaza-spiro[2.5]oct-4-yl]-butyronitrile], the 50% effective concentration (EC50) in assay [1] was 100 to 500 nM; in assay [2] it was 100 to 500 nM; in assay [3], 100 to 500 nM; in assay [4] it was over 500 nM.

As for `CS(=O)(=O)Nc1ccc(C(=O)N2CCN(c3ncnc4[nH]ccc34)CC23CC3)cc1` [Example 430, N-{4-[7-(7H-Pyrrolo[2,3-d]pyrimidin-4-yl)-4,7-diaza-spiro[2.5]octane-4-carbonyl]-phenyl}-methanesulfonamide], the EC50 in assay [1] (HTRF assay), in assay [2] (HTRF assay), in assay [3] (HTRF assay) and in assay [4] (HTRF assay) was under 100 nM each time.

`N#Cc1ccc(CC(=O)N2CCN(c3nc(N)nc4[nH]ccc34)CC23CC3)cc1` [Example 312, 4-{2-[7-(2-Amino-7H-pyrrolo[2,3-d]pyrimidin-4-yl)-4,7-diaza-spiro[2.5]oct-4-yl]-2-oxo-ethyl}-benzonitrile]: the EC50 in assay [1] (HTRF assay) was under 100 nM; in assay [2] (HTRF assay), under 100 nM; in assay [3] (HTRF assay), under 100 nM; in assay [4] (HTRF assay) it was 100 to 500 nM.

As to `CCC(=O)N1[C@@H]2CC[C@H]1CN(c1ncnc3[nH]ccc13)C2` [Example 30, 1-[3-(7H-Pyrrolo[2,3-d]pyrimidin-4-yl)-3,8-diazabicyclo[3.2.1]oct-8-yl]propan-1-one], the EC50 in assay [1] was 100 to 500 nM; in assay [2] it was 100 to 500 nM; in assay [3], over 500 nM; in assay [4] it was over 500 nM.

As for `Cc1c(C(=O)N2CCN(c3ccnc4[nH]ccc34)CC23CC3)sc2ccccc12` [Example 232, (3-Methyl-benzo[b]thiophen-2-yl)-[7-(1H-pyrrolo[2,3-b]pyridin-4-yl)-4,7-diaza-spiro[2.5]oct-4-yl]-methanone], the EC50 in assay [1] (HTRF assay) was under 100 nM; in assay [2] (HTRF assay) it was under 100 nM; in assay [3] (HTRF assay), over 500 nM; in assay [4] (HTRF assay) it was 100 to 500 nM.

For the molecule `CCCc1cc(C(=O)N2CCN(c3ncnc4[nH]ccc34)CC23CC3)cs1` [Example 207, (5-Propyl-thiophen-3-yl)-[7-(7H-pyrrolo[2,3-d]pyrimidin-4-yl)-4,7-diaza-spiro[2.5]oct-4-yl]-methanone], the EC50 is under 100 nM in assay [1] (HTRF assay), under 100 nM in assay [2] (HTRF assay), 100 to 500 nM in assay [3] (HTRF assay) and 100 to 500 nM in assay [4] (HTRF assay).

With `O=C(c1cc2cc(F)cc(F)c2[nH]1)N1CCN(c2ncnc3[nH]ccc23)CC12CC2` [Example 192, (5,7-Difluoro-1H-indol-2-yl)-[7-(7H-pyrrolo[2,3-d]pyrimidin-4-yl)-4,7-diaza-spiro[2.5]oct-4-yl]-methanone], the EC50 in assay [1], in assay [2], in assay [3] and in assay [4] was under 100 nM throughout.

For `O=C(c1cc2cc(F)ccc2[nH]1)N1CCN(c2ncnc3[nH]ccc23)CC12CC2` [Example 361, (5-Fluoro-1H-indol-2-yl)-[7-(7H-pyrrolo[2,3-d]pyrimidin-4-yl)-4,7-diaza-spiro[2.5]oct-4-yl]-methanone], the EC50 in assay [1] (HTRF assay), in assay [2] (HTRF assay), in assay [3] (HTRF assay) and in assay [4] (HTRF assay) was under 100 nM each time.

For the molecule `COc1csc(C(=O)N2CCN(c3ncnc4[nH]ccc34)CC23CC3)c1` [Example 386, (4-Methoxy-thiophen-2-yl)-[7-(7H-pyrrolo[2,3-d]pyrimidin-4-yl)-4,7-diaza-spiro[2.5]oct-4-yl]-methanone], the concentration for a half-maximal effect (EC50) in assay [1] (HTRF assay), in assay [2] (HTRF assay), in assay [3] (HTRF assay) and in assay [4] (HTRF assay) was under 100 nM in each case.

As for `CNS(=O)(=O)c1csc(C(=O)N2CCN(c3ncnc4[nH]ccc34)CC23CC3)c1` [Example 373, 5-[7-(7H-Pyrrolo[2,3-d]pyrimidin-4-yl)-4,7-diaza-spiro[2.5]octane-4-carbonyl]-thiophene-3-sulfonic acid methylamide], the EC50 in assay [1] (HTRF assay), in assay [2] (HTRF assay), in assay [3] (HTRF assay) and in assay [4] (HTRF assay) was under 100 nM throughout.

Take `O=C1OCCC1NC(=S)N1[C@@H]2CC[C@H]1CN(c1ncnc3[nH]ccc13)C2` (some centres unmarked) [Example 47, 3-(7H-Pyrrolo[2,3-d]pyrimidin-4-yl)-3,8-diaza-bicyclo[3.2.1]octane-8-carbothioic acid (2-oxo-tetrahydro-furan-3-yl)-amide]: the 50% effective concentration (EC50) in assay [1] was 100 to 500 nM; in assay [2] it was 100 to 500 nM; in assay [3], 100 to 500 nM; in assay [4], over 500 nM.

For `CCCS(=O)(=O)N1[C@@H]2CC[C@H]1CN(c1ncnc3[nH]ccc13)C2` [Example 51, 4-[8-(Propane-1-sulfonyl)-3,8-diaza-bicyclo[3.2.1]oct-3-yl]-7H-pyrrolo[2,3-d]pyrimidine], the EC50 in assay [1] is 100 to 500 nM; in assay [2], 100 to 500 nM; in assay [3] it was over 500 nM; in assay [4] it was over 500 nM.

For the origin of these results see patent US9346809B2 (LEO PHARMA A/S, priority 2009, dated 2016).
